According to patent publication US20220330529A1, “METHODS FOR GENERATING ANIMAL MODELS FOR NONALCOHOLIC FATTY LIVER DISEASE” (INNOLAND BIOSCIENCES (ZHEJIANG) CO., LTD., priority 2019, published 2022):

Columns and labels:
MS-NASH mice [1] = test: Therapeutic effects of OCA in WDF fed MS-NASH mice treated low dose CCl4; assay type: in vivo, mouse; conditions: OCA 30 mg/kg orally once daily 8 weeks vs vehicle
From the text: (§1) Male MS-NASH (formally FATZO) mice were developed by Crown Bioscience as the new generation of mouse model with obese, metabolic disorder, diabetes and NAFLD/NASH that is more translatable to human diseases. The animals for this study were bred housed individually in IVC cages (Taicang, China) or open ventilated cages (Indianapolis, Ind.), and fed control diet (CD, Purina 5008 chow, LabDiet, St. Louis, Mo.) with distilled water ad libitum for the first 8 weeks after birth, then, stratified into different experimental groups based on body weight, serum ALT and AST. Room temperature was monitored and maintained at 22-26° C. with a 12-hour light cycle (06:00-18:00). C57B1/6J mice (The Jackson Laboratory, Ellsworth, Maine) were used as control strain and housed under the same conditions. All mice were maintained and treated in accordance with the guidelines of Association for Assessment and Accreditation of Laboratory Animal Care (AAALAC), and experimental protocols approved by the Institutional Animal Care and Use Committee (IACUC).
(§2) In all the experiments, body weights were recorded every 4 weeks. […]
(§3) All values are reported as Mean±SEM, unless noted otherwise. […] Parametric correlation tests were conducted between pathologist scores and ImageDx quantitative analysis using Pearson correlation coefficient r. […]

C57B1/6 mice [2] = test: Therapeutic effects of OCA in WDF fed C57B1/6 mice treated low dose CCl4; assay type: in vivo, mouse; conditions: OCA 30 mg/kg orally once daily 8 weeks vs vehicle
From the text: as §1, §2, §3

MS-NASH mice [3] = test: High dose CCl4 (0.2 mL/kg) twice weekly for 3 weeks in MS-NASH mice on WDF; assay type: in vivo, mouse
From the text: as §1
(§4) In all the experiments, body weights were recorded every 4 weeks. At the end of the experiments, all mice were euthanized by CO2 inhalation and confirmed with cervical dislocation approximately 24 hours after the last CCl4 administration.
(§5) Blood samples: Blood samples during the course of the experiment were collected from the tail or at the end of the experiment from cardiac puncture, from which, serum prepared for measuring AST and ALT by a clinical analyzer (Beckman-Coulter AU480; Brea, Calif.). In the low dose CCl4 repeated treatment group, in-life blood samples were taken—24 hours, and terminal blood samples taken, —24 hours after CCl4 doing, respectively. A separate experiment was performed to observe the acute time course at 24, 48 and 72 hours in response to a single dose of CCl4 at 0.2 mL/kg in MS-NASH mice on CD.
(§6) Tissue processing: The liver tissues were fixed in 10% neutral buffered formalin (NBF) at 4° C. for 24 hours followed by baths of standard concentrations of alcohol then xylene to prepare the tissues for paraffin embedding. After being embedded in paraffin and cooled, five-micron sections were cut and stained for routine H&E and Picric Sirius Red.
(§7) Semi-quantitative scoring by a pathologist: The digital images were evaluated by a well-trained research pathologist blind of different study groups with the standard NASH criteria for semi-quantitative scoring commonly used in preclinical animal models and in patients. Hepatosteatosis, lobular inflammation, and hepatocyte balloon degeneration were scored individually from the H&E staining and then summarized as a standard NAFLD Activity Score (NAS). Fibrosis score was assessed systemically with pattern recognition from PSR staining. Three representative areas per liver were examined and the scores of each parameter from individual animal were averaged.
Computerized quantitative analysis: Computer software with […] (AI) machine learning algorithm for histology analysis from Halo (Indica Labs, Albuquerque, N. Mex.) or ImageDx (Reveal Biosciences, San Diego, Calif.) were used to analyze digitally scanned images of H&E and PSR staining for quantitative analysis of steatosis, ballooning, inflammation or fibrosis in a set of the same slides evaluated by the pathologist. The analysis process included automated tissue identification, followed by segmentation of regions of interest for quantification of the following metrics: 1) Steatosis percentage: the area of total lipid accumulation subcategorized micro- or macro-vesicular within the entire section area; 2) Ballooning hepatocyte density: the density of ballooning hepatocytes within the entire section area; 3) Inflammatory cell density: the total number of inflammatory cells within the entire section area. All 3 parameters above were analyzed in the H&E stained section. 4)Fibrosis percentage: the total fibrosis area within the entire section area in the PSR stained section. […]

MS-NASH mice [4] = test: Low dose CCl4 (0.08 mL/kg) twice weekly for 8 weeks in MS-NASH mice on WDF; assay type: in vivo, mouse
From the text: as §1, §4, §5
Liver contents: The right lobe of the liver (— 200 mg/animal) was collected and snap frozen in liquid nitrogen, placed in Lysing Matrix D Tubes with distilled water at 20% concentration (MP Biomedicals, Santa Anna, CA), homogenized in a Fastprep-FP120 cell disrupter (Thermo Fisher Savant) in cold condition for 30 seconds. The liver contents of triglyceride and cholesterol were analyzed by a clinical analyzer (Beckman-Coulter AU480) within 30 min of sample preparation.
as §6, §7
Computerized quantitative analysis: Computer software with […] (AI) machine learning algorithm for histology analysis from Halo (Indica Labs, Albuquerque, N. Mex.) or ImageDx (Reveal Biosciences, San Diego, Calif.) were used to analyze digitally scanned images of H&E and PSR staining for quantitative analysis of steatosis, ballooning, inflammation or fibrosis in a set of the same slides evaluated by the pathologist. […]

MS-NASH mice [5] = test: Survival rate in MS-NASH mice on WDF under CCl4; assay type: in vivo, mouse
Description: (§8) All values are reported as Mean±SEM, unless noted otherwise. Model characterization were compared in MS-NASH mice on CD or WDF with or without CCl4; and effects of OCA were compared to vehicle with One-Way ANOVA for multiple groups or Holm-Sidak t-test for 2 groups. Survival curves of total MS-NASH mice and C57B1/6 mice were compared using Log-rank test for trend. Parametric correlation tests were conducted between pathologist scores and ImageDx quantitative analysis using Pearson correlation coefficient r. Statistical differences were denoted as p<0.05 or p<0.005. Prism software (GraphPad, version 8.3) was used for the statistical analysis and graphing.
(§9) This example illustrates survival rate in MS-NASH and C57B1/6 mice on WDF and treated high and low dose of CCL4.

C57B1/6 mice [6] = test: Survival rate in C57B1/6 mice on WDF under CCl4; assay type: in vivo, mouse; conditions: low dose CCl4; C57B1/6 compared to MS-NASH mice; trend not statistically significant
Description: as §8, §9

MS-NASH mice [7] = test: Low dose CCl4 (0.08 mL/kg) twice weekly for 8 weeks in MS-NASH mice on WDF; assay type: in vivo, mouse; conditions: week 12 and 14, 3 days after CCl4 dosing, vs mice on WDF only
mice model = conditions: high chemical dosage (0.8-1.0 ml/kg) required to generate liver fibrosis phenotype; cited from earlier work
[8] = WDF + CCl4 0.08 mL/kg twice weekly
[9] = CCl4 0.2 mL/kg IP twice weekly 3 weeks, vs CD or WDF without CCl4
[10] = CCl4 0.2 mL/kg twice weekly 3 weeks, MS-NASH mice on WDF
[11] = CCl4 0.2 mL/kg twice weekly 3 weeks, measured 24 hours after the last dose
[12] = CCl4 0.08 mL/kg twice weekly 8 weeks, WDF vs WDF+CCl4
[13] = CCl4 0.08 mL/kg twice weekly 8 weeks, end of study
[14] = CCl4 0.08 mL/kg twice weekly 8 weeks, with vs without CCl4
[15] = CCl4 0.08 mL/kg, 24 hours after the last dose at end of experiment, compared to high dose CCl4

Question: For `CC[C@H]1[C@@H](O)[C@@H]2[C@H](CC[C@]3(C)[C@@H]([C@H](C)CCC(=O)O)CC[C@@H]23)[C@@]2(C)CC[C@@H](O)C[C@@H]12` [OCA, obeticholic acid], which “serum ALT level” value (MS-NASH mice [1]) is on record?
Answer: no significant effect

Question: What about the body weight (MS-NASH mice [1]; [8]) of the same molecule?
Answer: no significant effect

Question: What about the “serum ALT level” value (C57B1/6 mice [2]) of the same molecule?
Answer: no significant effect

Question: What about the body weight (C57B1/6 mice [2]; [8]) of the same molecule?
Answer: no significant effect

Question: Which caloric intake (MS-NASH mice [3]; [9]) does the source give for `ClC(Cl)(Cl)Cl` [CCl4, carbon tetrachloride] here?
Answer: significantly reduced

Question: And the food intake (MS-NASH mice [3]; [9])?
Answer: significantly reduced

Question: What about the body weight (MS-NASH mice [3]; CCl4 0.2 mL/kg IP twice weekly 3 weeks, vs MS-NASH mice on CD or WDF without CCl4) of the same molecule?
Answer: significantly reduced

Question: What about the “fibrosis area by computer analysis software (Halo) from PSR images” value (MS-NASH mice [3]; [10]) of the same molecule?
Answer: ~8%

Question: What about the “histopathology images (H&E, PSR)” value (MS-NASH mice [3]; [10]) of the same molecule?
Answer: aggravated liver injury and centrilobular fibrosis

Question: And the “pathology scores by the pathologist (steatosis, inflammation, ballooning, overall NAS, fibrosis score)” value (MS-NASH mice [3]; [10])?
Answer: failed to detect such enhanced pathology

Question: What about the “serum ALT” value (MS-NASH mice [3]; [11]) of the same molecule?
Answer: dramatically elevated

Question: And the “serum AST” value (MS-NASH mice [3]; [11])?
Answer: dramatically elevated

Question: And the “liver fibrosis score evaluated by the pathologist” value (MS-NASH mice [4]; [12])?
Answer: significantly aggravated

Question: And the “other aspects of liver pathology (NAS scores by the pathologist)” value (MS-NASH mice [4]; [12])?
Answer: little influence

Question: And the “liver contents of cholesterol” value (MS-NASH mice [4]; [13])?
Answer: significantly reduced

Question: And the liver weight (MS-NASH mice [4]; [13])?
Answer: significantly reduced

Question: And the body weight (MS-NASH mice [4]; CCl4 0.08 mL/kg twice weekly 8 weeks, vs mice without CCl4)?
Answer: reduced

Question: What about the “fibrosis area by Reveal ImageDx” value (MS-NASH mice [4]; [14]) of the same molecule?
Answer: larger

Question: And the “steatosis area, inflammatory cell infiltration and degenerated liver cell counts by Reveal ImageDx” value (MS-NASH mice [4]; [14])?
Answer: no significant difference

Question: And the “elevation of serum ALT” value (MS-NASH mice [4]; [15])?
Answer: not as dramatic

Question: What about the “elevation of serum AST” value (MS-NASH mice [4]; [15]) of the same molecule?
Answer: not as dramatic

Question: And the “NAFLD progression and fibrosis development” value (MS-NASH mice [4]; MS-NASH mice fed WDF with 0.08 ml/kg CCl4)?
Answer: accelerated

Question: What about the death (MS-NASH mice [5]; high dose CCl4 (0.2 mL/kg twice weekly), within the first 3 weeks) of the same molecule?
Answer: ~20%

Question: And the survival rate (MS-NASH mice [5]; lower dose CCl4 (0.08 mL/kg twice weekly), end of 8-week experimental duration)?
Answer: 87.5%

Question: And the survival rate (C57B1/6 mice [6])?
Answer: tended to be lower

Question: What about the “in-life serum ALT level” value (MS-NASH mice [7]) of the same molecule?
Answer: significantly lower

Question: What about the “in-life serum AST level” value (MS-NASH mice [7]) of the same molecule?
Answer: significantly lower

Question: What about the body weight (mice model) of the same molecule?
Answer: severe body weight loss
